Assay results taken from patent US5034553A, “Platinum-(II)-diamine complex, method for the preparation of this compound, preparation with an anti-tumour action which contains this compound and also shaped preparations with an anti-tumour action” (Nederlandse Organisatie Voor …, priority 1988, dated 1991).

Assays:
A2780/DDP = details: for IC50 ratio: IC50 A2780/DDP versus IC50 A2780
Description: (§3) The cytotoxic action of the platinum complex was evaluated in vitro in a cell line panel consisting of B16-F10 murine melanoma, HCT-116 human colon carcinoma, A2780 human ovary carcinoma and 2 sub-lines of A2780 which are resistant to cis-platinum, i.e. A2780/124 and A2780/PPD respectively. The B16-F10 cell line was kept in a culture of Eagle's Minimum Essential Medium (MEM) with Earle's salts (Gibco) enriched with 2 mmol L-glutamine, 2.06 mmol sodium pyruvate, insulin (0.26 units/ml), penicillin/streptomycin (10 units/ml and 10 mcg/ml respectively), MEM non-essential amino acids (0.6% by weight Gibco) and 10% foetal bovine serum (Hyclone). The HCT-116 cells were cultured in McCoy's 5A medium (modified Gibco) which was supplemented with 2 mmol L-glutamine, 0.12 mmol L-serine, 0.17 mmol asparagine, 1.5 mmol sodium pyruvate, MEM essential amino acids (0.625%, Gibco), MEM non-essential amino acids (0.67%, Gibco), MEM vitamins (0.6%, Gibco), foetal calf serum (10%, Hyclone) and penicillin/streptomycin (10 units/ml and 10 mcg/ml). The A2780 cell lines are cultured in RPMI medium 1640 (Gibco Laboratories) supplemented with foetal calf serum (10% Hyclone), 2 mmol L-glutamine and penicillin/streptomycin. All cell lines are incubated at 37° C. in an incubator with 5% by volume CO2 with a high atmospheric humidity.
(§4) Logarithmically growing cells are harvested by mild trypsinisation and 4,000 cells are added to a microtitre plate with 96 wells (Costar). The plates are incubated for one night in 5% by volume CO2 at 37° C. to allow the cells to adhere to the plate. The cells are then treated with the platinum complex or cis-platinum and incubated for 72 hours. […] Formalin (10% by weight) in a phosphate-buffered physiological saline solution is added and the cells are fixed for 10 minutes. […] The spot is rendered soluble with 0.2 ml 0.1M acetic acid/ethanol (1:1) and the optical densities are determined with the aid of a Dynatech MR 600 microtitre plate reader. […]

[1] = B. Rosenberg et al., Nature 222 (1969); cited from earlier work
A2780/124 = details: for IC50 ratio: IC50 A2780/124 versus IC50 A2780
Description: as §3, §4

[2] = tested on: M5076 reticulum cell sarcoma; test: Action against M5076 sarcoma, subcutaneous implantation, i.v. treatment; format: in vivo, BDF1 mice; details: for T-C: time to 1 gram tumour
Description: (§1) The complex was also assessed for anti-tumour action against M5076 sarcoma. BDF1 mice, 8 per group, were inoculated intraperitoneally with 10^6 cells of M5076 or subcutaneously with a fragment of a M5076 tumour.
(§2) Mice with an intraperitoneal tumour were treated intraperitoneally starting 13 days after the implantation and this was continued on days 17, 21 and 25, resulting in 4 treatments in all. Mice with an implanted subcutaneous tumour were treated intravenously starting 5 days after the implantation and again on days 9, 13 and 17. Therefore a total of four treatments. Four doses of the complex were tested. A comparison group treated with physiological saline solution and groups treated with cs-platinum are included in this experiment. The mice were assessed daily for survival and the tests were ended after 75 to 80 days. The anti-tumour action was determined on the basis of a) mean survival time of the mice treated with the active substance relative to that of the untreated mice (% T/C) and b) the mean time for subcutaneously implanted tumours to reach a weight of 1 gram in mice treated with active substance relative to the untreated mice (T-C). A compound is regarded as active if this gives a T/C≥125% or is T-C≥13 days.

L1210 murine leukaemia = test: Activity against L1210 murine leukaemia; format: in vivo, CDF1 mice; details: for % T/C: once on day 1
Description: The platinum complex is investigated for anti-tumour action against L1210 murine leukaemia. CDF1 mice with a weight of 20 g were inoculated intraperitoneally with 10^6 ascitic cells of L1210 leukaemia. The administration of the active substance was started the day following the intraperitoneal implantation of the tumour. The complex is administered in diverse amounts by intraperitoneal injections. Groups of 6 mice are used for each dose and they are treated with a single dose of the complex on the treatment day. A group of ten control mice treated with a physiological saline solution was included in the experiment. The groups treated with cis-platinum are included as positive comparisons. The mice were weighed before the treatment and again on the fifth or sixth day and the average change in weight is taken as a measure of the toxicity. The animals are assessed daily for mortality and the experiments are ended after 30 days. The tumour activity is determined on the basis of % T/C, which is the ratio of mean survival time of the group treated with the active substance relative to the mean survival time of the comparison group treated with a physiological saline solution times 100. The mice treated with physiological saline solution usually have a mean survival time of 7 days. A compound is regarded as active when this gives a % T/C≥125%.

[3] = tested on: M5076 reticulum cell sarcoma; test: Action against M5076 sarcoma, intraperitoneal implantation, i.p. treatment; format: in vivo, BDF1 mice
Description: as §1, §2

[4] = tested on: HCT-116 human colon carcinoma; test: In vitro cytotoxicity, HCT-116; format: cell-based; details: HCT116, 72 hours
Description: (§5) The cytotoxic action of the platinum complex was evaluated in vitro in a cell line panel consisting of B16-F10 murine melanoma, HCT-116 human colon carcinoma, A2780 human ovary carcinoma and 2 sub-lines of A2780 which are resistant to cis-platinum, i.e. A2780/124 and A2780/PPD respectively. The B16-F10 cell line was kept in a culture of Eagle's Minimum Essential Medium (MEM) with Earle's salts (Gibco) enriched with 2 mmol L-glutamine, 2.06 mmol sodium pyruvate, insulin (0.26 units/ml), penicillin/streptomycin (10 units/ml and 10 mcg/ml respectively), MEM non-essential amino acids (0.6% by weight Gibco) and 10% foetal bovine serum (Hyclone). The HCT-116 cells were cultured in McCoy's 5A medium (modified Gibco) which was supplemented with 2 mmol L-glutamine, 0.12 mmol L-serine, 0.17 mmol asparagine, 1.5 mmol sodium pyruvate, MEM essential amino acids (0.625%, Gibco), MEM non-essential amino acids (0.67%, Gibco), MEM vitamins (0.6%, Gibco), foetal calf serum (10%, Hyclone) and penicillin/streptomycin (10 units/ml and 10 mcg/ml). […]
(§6) Logarithmically growing cells are harvested by mild trypsinisation and 4,000 cells are added to a microtitre plate with 96 wells (Costar). […] The spot is rendered soluble with 0.2 ml 0.1M acetic acid/ethanol (1:1) and the optical densities are determined with the aid of a Dynatech MR 600 microtitre plate reader. […]

B16-F10 murine melanoma = test: In vitro cytotoxicity, B16-F10; format: cell-based; details: B16-F10, 72 hours
Description: as §5, §6

[5] = tested on: A2780 human ovary carcinoma; test: In vitro cytotoxicity, A2780; format: cell-based; details: A2780, 72 hours
Description: as §5, §6

[6] = tested on: B16-F10, HCT-116, A2780, A2780/124 and A2780/DDP; format: cell-based, murine and human
Description: as §5, §6

[7] = 2.4 mg/kg i.v. on days 5, 9, 13 and 17
[8] = 4.8 mg/kg i.v. on days 5, 9, 13 and 17
[9] = 4 mg/kg i.v. on days 5, 9, 13 and 17
[10] = 6 mg/kg i.v. on days 5, 9, 13 and 17
[11] = 8 mg/kg i.v. on days 5, 9, 13 and 17
[12] = 12 mg/kg i.v. on days 5, 9, 13 and 17

## N.N.[Cl][Pt][Cl] [Cis-platinum, cis-diamine-dichloroplatinum, reference compound]
A2780/DDP
  IC50 ratio: 12.6
[1]
  anti-tumour activity: very strong anti-tumour activity
A2780/124
  IC50 ratio: 10
[2]; [7]
  % T/C: 144%
  T-C: 23.3 days
[2]; [8]
  % T/C: 141%
  T-C: 31.8 days
L1210 murine leukaemia; 6-10 mg/kg
  maximum % T/C: 138%
[3]; 2.4 mg/kg i.p. on days 13, 17, 21 and 25
  % T/C: 164%
[3]; 4.8 mg/kg i.p. on days 13, 17, 21 and 25
  % T/C: 166%

## CC(C)C(CN)(CN)C(C)C.O=C([O-])C(=O)[O-].[Pt+2] [TNO-56, 2,2-Diisopropyl-1,3-diaminopropaneoxalatoplatinum (II)]
[4]
  IC50: 115 µg/mL
A2780/DDP; A2780/DDP, 72 hours
  IC50: 110 µg/mL
A2780/DDP
  IC50 ratio: 0.5
A2780/124; A2780/124, 72 hours
  IC50: 155 µg/mL
A2780/124
  IC50 ratio: 0.7
[2]; [9]
  % T/C: 119%
  T-C: 7.8 days
[2]; [10]
  % T/C: 135%
  T-C: 14.0 days
[2]; [11]
  % T/C: 140%
  T-C: 21.5 days
[2]; [12]
  % T/C: 144%
  T-C: 26.8 days
[2]; dose dependence, i.v.
  % T/C and tumour inhibition: dosage-dependent increase in % T/C and tumour inhibition
B16-F10 murine melanoma
  IC50: 43 µg/mL
[5]
  IC50: 221 µg/mL
L1210 murine leukaemia; 10 mg/kg i.p.
  % T/C: 125%
L1210 murine leukaemia; 20 mg/kg i.p.
  % T/C: 144%
L1210 murine leukaemia; 40 mg/kg i.p.
  % T/C: 88%
L1210 murine leukaemia; 10 and 20 mg/kg i.p., active if % T/C≥125%
  activity: active
[3]; 4 mg/kg i.p. on days 13, 17, 21 and 25
  % T/C: 139%
[3]; 6 mg/kg i.p. on days 13, 17, 21 and 25
  % T/C: 154%
[3]; 8 mg/kg i.p. on days 13, 17, 21 and 25
  % T/C: 161%
[3]; 12 mg/kg i.p. on days 13, 17, 21 and 25
  % T/C: 193%
[3]; all doses tested, i.p.
  activity: active
[6]
  cytotoxic action: cytotoxic for all five cell lines
